Results reported in article PMC12655351, “Synthesis and Anticancer Activity Evaluation of New 5-((5-Nitrofuran-2-yl)allylidene)-2-thioxo-4-thiazolidinones” (Pharmaceuticals, 2025).

Columns and labels:
CCRF-CEM [1] = conditions: 48 h
SF-539 = conditions: for TGI: SF-539, 48 h
SK-MEL-5 = conditions: for growth GP: SK-MEL-5, 10 μM, 48 h; for TGI: SK-MEL-5, 48 h
UACC-257 = conditions: UACC-257, 48 h
OVCAR-4 = conditions: OVCAR-4, 48 h
OVCAR-8 = conditions: OVCAR-8, 48 h
A498 = conditions: A498, 48 h
CAKI-1 = conditions: for TGI: CAKI-1, 48 h
DU-145 = conditions: for TGI: DU-145, 48 h
HS 578T = conditions: 48 h
BT-549 [2] = conditions: for TGI: BT-549, 48 h
Melanoma = Melanoma subpanel
Renal Cancer = Renal Cancer subpanel
[3] = system: panel of 60 cancer cell lines; conditions: for Positive cytostatic effect (ratio of cell lines with GP from 0 to 50 to total number) / Mean growth / Range of growth: 10 μM, 48 h; for Mean growth / Range of growth: one dose; for MG_MID TGI: full panel (last line of Table S2)
CCRF-CEM [4] = test: cells; conditions: Homo sapiens, 48 h
K-562 = test: cells; conditions: Homo sapiens, K562, 48 h; for GI50: K-562, 48 h; for CC50: read-out: LC50
RPMI-8226 = test: cells; conditions: Homo sapiens, RPMI-8226, 48 h; for CC50: read-out: LC50
NCI-H23 = test: cells; conditions: Homo sapiens, NCI-H23, 48 h; for CC50: read-out: LC50, NCI-H23, 48 h
HT29 = test: cells; conditions: Homo sapiens, HT-29, 48 h; for GI50: HT29, 48 h; for CC50: read-out: LC50, HT29, 48 h
SF-268 = test: cells; conditions: Homo sapiens, SF-268, 48 h; for CC50: read-out: LC50, SF-268, 48 h
MDA-MB-435 = test: cells; conditions: Homo sapiens, MDA-MB-435, 48 h; for CC50: read-out: LC50, MDA-MB-435, 48 h
786-0 = test: cells; conditions: Homo sapiens, 786-0, 48 h
BT-549 [5] = test: cells; conditions: Homo sapiens, BT-549, 48 h; for CC50: read-out: LC50, BT-549, 48 h
[6] = system: Non-small cell lung cancer; test: cells; conditions: Homo sapiens; for GI50: read-out: MG_MID GI50; for CC50: read-out: MG_MID LC50
Breast cancer = test: cells; conditions: Homo sapiens; for GI50: read-out: MG_MID GI50; for CC50: read-out: MG_MID LC50
NCI-H322M = test: NCI-60 SRB screen; conditions: 48 h; for GI50 / CC50: Homo sapiens; for CC50: read-out: LC50, NCI-H322M, 48 h
NCI-H460 = test: NCI-60 SRB screen; conditions: NCI-H460, 48 h; for GI50 / CC50: Homo sapiens; for CC50: read-out: LC50
SNB-19 = test: NCI-60 SRB screen; conditions: for GI50 / CC50: Homo sapiens; for GI50 / CC50 / TGI: SNB-19, 48 h; for CC50: read-out: LC50, SNB-19, 48 h
SK-MEL-2 = test: NCI-60 SRB screen; conditions: SK-MEL-2, 48 h; for GI50 / CC50: Homo sapiens; for CC50: read-out: LC50, SK-MEL-2, 48 h
ACHN = test: NCI-60 SRB screen; conditions: 48 h; for GI50 / CC50: Homo sapiens; for CC50: read-out: LC50, ACHN, 48 h
RXF 393 = test: NCI-60 SRB screen; conditions: RXF 393, 48 h; for GI50: Homo sapiens
MCF7 = test: NCI-60 SRB screen; conditions: MCF7, 48 h; for GI50: Homo sapiens
Colon cancer = test: NCI-60 SRB screen, subpanel; conditions: for MG_MID TGI: Colon cancer subpanel; for GI50 / CC50: Homo sapiens; for GI50: read-out: MG_MID GI50; for CC50: read-out: MG_MID LC50

CC(C)C(C(=O)O)N1C(=O)/C(=C/C=C/c2ccc([N+](=O)[O-])o2)SC1=S (stereo not drawn) [5b, 3-Methyl-2-((Z)-5-((E)-3-(5-nitrofuran-2-yl)allylidene)-4-oxo-2-thioxothiazolidin-3-yl)butanoic acid]
TGI (CCRF-CEM [1]): 1.81 µM
growth GP (SF-539; SF-539, 10 μM, 48 h): -98.47%
TGI (SF-539): 2.91 µM
growth GP (SK-MEL-5): -99.69%
TGI (SK-MEL-5): 2.21 µM
TGI (UACC-257): 3.27 µM
TGI (OVCAR-4): 6.72 µM
TGI (OVCAR-8): 4.78 µM
TGI (A498): 4.81 µM
growth GP (CAKI-1; CAKI-1, 10 μM, 48 h): -97.14%
TGI (CAKI-1): 2.46 µM
growth GP (DU-145; DU-145, 10 μM, 48 h): -98.94%
TGI (DU-145): 2.82 µM
TGI (HS 578T): 7.56 µM
growth GP (BT-549 [2]; BT-549, 10 μM, 48 h): -98.16%
TGI (BT-549 [2]): 2.14 µM
MG_MID TGI (Melanoma): 2.68 µM
MG_MID TGI (Renal Cancer): 3.27 µM
Positive cytostatic effect (ratio of cell lines with GP from 0 to 50 to total number) [3]: 2/55
Mean growth [3]: -73.80%
MG_MID TGI [3]: 3.53 µM
GI50 (CCRF-CEM [4]): 0.36 µM
GI50 (K-562): 0.45 µM
CC50 (K-562): > 100 µM
GI50 (RPMI-8226): 0.35 µM
CC50 (RPMI-8226): > 100 µM
GI50 (NCI-H23): 1.75 µM
CC50 (NCI-H23): 6.63 µM
GI50 (HT29): 1.37 µM
CC50 (HT29): 6.14 µM
GI50 (SF-268): 1.61 µM
CC50 (SF-268): 7.92 µM
GI50 (MDA-MB-435): 0.85 µM
CC50 (MDA-MB-435): 5.01 µM
GI50 (786-0): 1.06 µM
GI50 (BT-549 [5]): 0.75 µM
CC50 (BT-549 [5]): 5.13 µM
GI50 [6]: 1.8 µM
CC50 [6]: 20.1 µM
GI50 (Breast cancer): 1.22 µM
CC50 (Breast cancer): 24.6 µM
TGI (NCI-H322M): 3.88 µM
GI50 (NCI-H322M): 1.82 µM
CC50 (NCI-H322M): 8.29 µM
GI50 (NCI-H460): 1.76 µM
CC50 (NCI-H460): 34.5 µM
TGI (NCI-H460): 4.93 µM
GI50 (SNB-19): 1.64 µM
CC50 (SNB-19): 5.53 µM
growth GP (SNB-19; SNB-19, 10 μM, 48 h): -97.77%
TGI (SNB-19): 3.01 µM
GI50 (SK-MEL-2): 1.52 µM
CC50 (SK-MEL-2): 6.02 µM
TGI (SK-MEL-2): 3.03 µM
growth GP (ACHN; 10 μM): -99.54%
TGI (ACHN): 2.64 µM
GI50 (ACHN): 1.35 µM
CC50 (ACHN): 5.19 µM
GI50 (RXF 393): 1.74 µM
TGI (RXF 393): 3.27 µM
GI50 (MCF7): 0.43 µM
TGI (MCF7): 1.83 µM
MG_MID TGI (Colon cancer): 2.48 µM
GI50 (Colon cancer): 1.03 µM
CC50 (Colon cancer): 7.06 µM

CCCCC(C(=O)O)N1C(=O)/C(=C/C=C/c2ccc([N+](=O)[O-])o2)SC1=S (stereo not drawn) [6b, 2-((Z)-5-((E)-3-(5-nitrofuran-2-yl)allylidene)-4-oxo-2-thioxothiazolidin-3-yl)hexanoic acid]
TGI (CCRF-CEM [1]): 10.2 µM
TGI (SF-539): 4.17 µM
growth GP (SK-MEL-5): -99.30%
TGI (SK-MEL-5): 2.77 µM
TGI (UACC-257): 4.31 µM
TGI (OVCAR-4): 19.0 µM
TGI (OVCAR-8): 4.86 µM
TGI (A498): 8.28 µM
TGI (CAKI-1): 3.29 µM
TGI (DU-145): 10.2 µM
TGI (HS 578T): 27.4 µM
TGI (BT-549 [2]): 3.12 µM
MG_MID TGI (Melanoma): 3.59 µM
MG_MID TGI (Renal Cancer): 5.37 µM
Positive cytostatic effect (ratio of cell lines with GP from 0 to 50 to total number) [3]: 6/55
Range of growth [3]: -99.30 to 46.65%
MG_MID TGI [3]: 6.27 µM
GI50 (CCRF-CEM [4]): 3.1 µM
GI50 (K-562): 2.6 µM
CC50 (K-562): > 100 µM
GI50 (RPMI-8226): 1.78 µM
CC50 (RPMI-8226): > 100 µM
GI50 (NCI-H23): 1.85 µM
CC50 (NCI-H23): 6.64 µM
GI50 (HT29): 1.98 µM
CC50 (HT29): 6.95 µM
GI50 (SF-268): 2.15 µM
CC50 (SF-268): 16.8 µM
GI50 (MDA-MB-435): 1.81 µM
CC50 (MDA-MB-435): 6.61 µM
GI50 (786-0): 3.11 µM
GI50 (BT-549 [5]): 1.49 µM
CC50 (BT-549 [5]): 6.55 µM
GI50 [6]: 2.43 µM
CC50 [6]: 38.7 µM
GI50 (Breast cancer): 2.03 µM
CC50 (Breast cancer): 26.7 µM
TGI (NCI-H322M): 15.0 µM
GI50 (NCI-H322M): 3.84 µM
CC50 (NCI-H322M): 43.9 µM
GI50 (NCI-H460): 1.84 µM
CC50 (NCI-H460): 69.6 µM
TGI (NCI-H460): 3.61 µM
GI50 (SNB-19): 2.1 µM
CC50 (SNB-19): 13.5 µM
TGI (SNB-19): 4.88 µM
GI50 (SK-MEL-2): 1.7 µM
CC50 (SK-MEL-2): 6.12 µM
TGI (SK-MEL-2): 3.22 µM
TGI (ACHN): 3.48 µM
GI50 (ACHN): 1.88 µM
CC50 (ACHN): 6.47 µM
GI50 (RXF 393): 1.69 µM
TGI (RXF 393): 3.20 µM
GI50 (MCF7): 1.64 µM
TGI (MCF7): 4.11 µM
MG_MID TGI (Colon cancer): 3.57 µM
GI50 (Colon cancer): 1.81 µM
CC50 (Colon cancer): 6.66 µM

O=C(O)C(c1ccccc1)N1C(=O)/C(=C/C=C/c2ccc([N+](=O)[O-])o2)SC1=S (stereo not drawn) [9b, 2-((Z)-5-((E)-3-(5-Nitrofuran-2-yl)allylidene)-4-oxo-2-thioxothiazolidin-3-yl)-2-phenylacetic acid]
TGI (CCRF-CEM [1]): 13.3 µM
TGI (SF-539): 24.7 µM
TGI (SK-MEL-5): 13.7 µM
TGI (UACC-257): 27.2 µM
TGI (OVCAR-4): 28.0 µM
TGI (OVCAR-8): 25.5 µM
TGI (A498): 36.5 µM
TGI (CAKI-1): 19.7 µM
TGI (DU-145): 23.7 µM
TGI (HS 578T): 35.0 µM
TGI (BT-549 [2]): 7.81 µM
MG_MID TGI (Melanoma): 20.0 µM
MG_MID TGI (Renal Cancer): 22.1 µM
Positive cytostatic effect (ratio of cell lines with GP from 0 to 50 to total number) [3]: 28/55
Mean growth [3]: 26.29%
Range of growth [3]: -88.21 to 175.37%
MG_MID TGI [3]: 24.1 µM
GI50 (CCRF-CEM [4]): 3.12 µM
GI50 (K-562): 3.45 µM
CC50 (K-562): > 100 µM
GI50 (RPMI-8226): 3.19 µM
CC50 (RPMI-8226): > 100 µM
GI50 (NCI-H23): 14.4 µM
CC50 (NCI-H23): 66.9 µM
GI50 (HT29): 5.02 µM
CC50 (HT29): 94.5 µM
GI50 (SF-268): 10.8 µM
CC50 (SF-268): 52.2 µM
GI50 (MDA-MB-435): 3.04 µM
CC50 (MDA-MB-435): 40.6 µM
GI50 (786-0): 3.67 µM
GI50 (BT-549 [5]): 2.46 µM
CC50 (BT-549 [5]): 35.7 µM
GI50 [6]: 11.1 µM
CC50 [6]: 73.2 µM
GI50 (Breast cancer): 5.89 µM
CC50 (Breast cancer): 49.4 µM
TGI (NCI-H322M): 26.6 µM
GI50 (NCI-H322M): 13.4 µM
CC50 (NCI-H322M): 52.5 µM
GI50 (NCI-H460): 11.6 µM
CC50 (NCI-H460): 73.6 µM
TGI (NCI-H460): 29.2 µM
GI50 (SNB-19): 13.5 µM
CC50 (SNB-19): 51.4 µM
TGI (SNB-19): 26.3 µM
GI50 (SK-MEL-2): 5.64 µM
CC50 (SK-MEL-2): 49.2 µM
TGI (SK-MEL-2): 19.7 µM
TGI (ACHN): 21.4 µM
GI50 (ACHN): 9.25 µM
CC50 (ACHN): 47.2 µM
GI50 (RXF 393): 4.01 µM
TGI (RXF 393): 14.6 µM
GI50 (MCF7): 3.67 µM
TGI (MCF7): 16.5 µM
MG_MID TGI (Colon cancer): 19.4 µM
GI50 (Colon cancer): 6.75 µM
CC50 (Colon cancer): 66.2 µM
